Assay results published in patent US20230124361A1, “SMALL MOLECULE STING ANTAGONISTS” (CURADEV PHARMA PVT. LTD., priority 2020, published 2023).

Each compound was assayed against T1, STING (Homo sapiens, UniProt Q86WV6, G230A/H232R/R293Q/R71H) (assay: Reporter gene expression assay in THP1-Dual cells (IRF pathway Lucia luciferase, 2',3'-cGAMP stimulation)). Conditions: 10 min preincubation, 5 μM 2',3'-cGAMP, 20 hr, IRF reporter QUANTI-Luc, read-out: THP-1 (HAQ) Activity.
T1 construct: host or cells: THP1-Dual cells (human THP-1 monocyte line with Lucia/SEAP reporters)
Assay type: cell-based
Method in brief: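 THP1-Dual cells preincubated 10 min with compound, then stimulated with 5 μM 2′,3′-cGAMP for 20 hr. Secreted Lucia luciferase (IRF reporter) measured in supernatant by luminescence; IC50 reported as ranges (A ≤1 μM, B >1–≤10 μM, C >10 μM).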

T1 sequence (Q86WV6 whole entry R71H/G230A/H232R/R293Q): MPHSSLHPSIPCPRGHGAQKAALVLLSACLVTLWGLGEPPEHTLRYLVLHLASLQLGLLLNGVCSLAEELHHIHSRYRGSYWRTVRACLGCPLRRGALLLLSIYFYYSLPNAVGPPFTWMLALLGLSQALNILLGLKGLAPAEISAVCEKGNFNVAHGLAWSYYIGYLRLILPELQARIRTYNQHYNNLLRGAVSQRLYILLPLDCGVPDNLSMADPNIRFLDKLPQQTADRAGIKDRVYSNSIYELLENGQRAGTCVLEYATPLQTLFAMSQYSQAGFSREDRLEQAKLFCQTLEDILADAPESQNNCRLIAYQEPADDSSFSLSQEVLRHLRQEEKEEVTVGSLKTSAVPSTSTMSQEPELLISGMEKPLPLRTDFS

Row | SMILES | IC50 [nM]
1 | O=C(Nc1ccc2c(c1)OCCN2Cc1ccccc1)Nc1ccc2cc[nH]c2c1 [Example 62, 1-(4-Benzyl-3,4-dihydro-2H-benzo[b][1,4]oxazin-7-yl)-3-(1H-indol-6-yl)urea] | > 10000
2 | O=C(Nc1ccc2c(c1)SCC(=O)N2Cc1c(F)ccc(O)c1Cl)Nc1ccc2cc[nH]c2c1 [Example 125, l-(4-(2-chloro-6-fluoro-3-hydroxybenzyl)-3-oxo-3,4-dihydro-2H-benzo[b][1, 4]thiazin-7-yl)-3-(1H-indol-6-yl)urea] | ≤ 1000
3 | O=C(Nc1ccc2c(c1)OCC(=O)N2Cc1cc2c(cc1Cl)OCO2)Nc1ccc2cc[nH]c2c1 [Example 103, 1-(4-((6-chlorobenzo[d][1,3]dioxol-5-yl)methyl)-3-oxo-3,4-dihydro-2H-benzo[b][1,4]oxazin-7-yl)-3-(1H-indol-6-yl)urea] | ≤ 1000
4 | CN(C(=O)Nc1ccc2cc[nH]c2c1)c1ccc2c(c1)N(Cc1ccccc1)C(=O)CS2 [Example 31, 1-(4-benzyl-3-oxo-3,4-dihydro-2H-benzo[b][1, 4]thiazin-6-yl)-3-(1H-indol-6-yl)-1-methylurea] | 1000 to 10000
5 | O=C(Nc1ccc2c(c1)OCCN2Cc1c(F)cccc1Cl)Nc1ccc2cc[nH]c2c1 [Example 170, 1-(4-(2-chloro-6-fluorobenzyl)-3,4-dihydro-2H-benzo[b][1, 4]oxazin-7-yl)-3-(1H-indol-6-yl)urea] | 1000 to 10000
6 | O=C(Nc1ccc2c(c1)SCCN2Cc1c(F)cccc1Cl)Nc1ccc2cc[nH]c2c1 [Example 171, 1-(4-(2-chloro-6-fluorobenzyl)-3,4-dihydro-2H-benzo[b][1, 4]thiazin-7-yl)-3-(1H-indol-6-yl)urea] | ≤ 1000
7 | O=C1CSc2ccc(N3CCN(c4ccc5cc[nH]c5c4)CC3)cc2N1Cc1ccccc1 [Example 191, 6-(4-(1H-Indol-6-yl)piperazin-1-yl)-4-benzyl-2H-benzo[b][1,4]thiazin-3(4H)-one] | 1000 to 10000
8 | NC(=O)C(c1ccccc1)N1CCOc2ccc(NC(=O)Nc3ccc4cc[nH]c4c3)cc21 (stereo not drawn) [Example 84, 2-(6-(3-(1H-Indol-6-yl)ureido)-2,3-dihydro-4H-benzo[b][1,4]oxazin-4-yl)-2-phenylacetamide] | 1000 to 10000
9 | C[C@H]1c2ccc(NC(=O)Nc3ccc(F)cc3)cc2N(Cc2ccccc2)C(=O)N1C [Example 38, (S)-1-(1-benzyl-3,4-dimethyl-2-oxo-1,2,3,4-tetrahydro-quinazolin-7-yl)-3-(4-fluorophenyl)urea] | > 10000
10 | O=C(Nc1ccc2c(c1)OCC(=O)N2CC1COc2ccccc2O1)Nc1ccc2cc[nH]c2c1 (stereo not drawn) [Example 97, 1-(4-((2,3-dihydrobenzo[b][1,4]dioxin-2-yl)methyl)-3-oxo-3,4-dihydro-2H-benzo[b][1,4]oxazin-7-yl)-3-(1H-indol-6-yl)urea] | ≤ 1000
11 | O=C(Nc1ccc2c(c1)OCC(=O)N2Cc1cccc(CO)c1)Nc1ccc2cc[nH]c2c1 [Example 156, 1-(4-(3-(hydroxymethyl)benzyl)-3-oxo-3,4-dihydro-2H-benzo[b][1, 4]oxazin-7-yl)-3-(1H-indol-6-yl)urea] | 1000 to 10000
12 | O=C(Nc1ccc2c(c1)N(CCN1CCCC1)CCS2)Nc1ccc2cc[nH]c2c1 [Example 68, 1-(1H-indol-6-yl)-3-(4-(2-(pyrrolidin-1-yl)ethyl)-3,4-dihydro-2H-benzo[b][1, 4]thiazin-6-yl)urea] | 1000 to 10000
13 | O=C(Nc1ccc2c(c1)NCCO2)Nc1ccc2c(c1)N(Cc1ccccc1)C(=O)CS2 [Example 51, 1-(4-benzyl-3-oxo-3,4-dihydro-2H-benzo[b][1, 4]thiazin-6-yl)-3-(3,4-dihydro-2H-benzo[b][1, 4]oxazin-6-yl)urea] | 1000 to 10000
14 | O=C(Nc1ccc2c(c1)OCC(=O)N2Cc1ccc(OC(F)F)cc1)Nc1ccc2cc[nH]c2c1 [Example 109, 1-(4-(4-(difluoromethoxy)benzyl)-3-oxo-3,4-dihydro-2H-benzo[b][1,4]oxazin-7-yl)-3-(1H-indol-6-yl)urea] | ≤ 1000
15 | O=C(Cc1ccco1)Nc1ccc2c(c1)N(Cc1ccccc1)C(=O)CS2 [Example 48, N-(4-benzyl-3-oxo-3,4-dihydro-2H-benzo[b][1,4]thiazin-6-yl)-2-(furan-2-yl)acetamide] | > 10000
16 | O=S(=O)(Nc1ccc2c(c1)N(Cc1ccccc1)CCO2)Nc1ccc2cc[nH]c2c1 [Example 176, 4-Benzyl-N-(1H-indol-6-ylsulfamoyl)-2,3-dihydro-1,4-benzoxazin-6-amine] | 1000 to 10000
17 | O=C(Nc1ccc2c(c1)N(Cc1ccncc1)CCS2)Nc1ccc2cc[nH]c2c1 [Example 66, 1-(1H-indol-6-yl)-3-(4-(pyridin-4-ylmethyl)-3,4-dihydro-2H-benzo[b][1, 4]thiazin-6-yl)urea] | ≤ 1000
18 | CC1Sc2ccc(NC(=O)Nc3ccccc3)cc2N(Cc2ccccc2)C1=O (stereo not drawn) [Example 32, 1-(4-benzyl-2-methyl-3-oxo-3,4-dihydro-2H-benzo[b][1, 4]thiazin-6-yl)-3-phenylurea] | 1000 to 10000
19 | O=C(Nc1ccc2c(c1)OCC(=O)N2Cc1ccc(O)cc1)Nc1ccc2cc[nH]c2c1 [Example 139, 1-(4-(4-hydroxybenzyl)-3-oxo-3,4-dihydro-2H-benzo[b][1, 4]oxazin-7-yl)-3-(1H-indol-6-yl)urea] | 1000 to 10000
20 | O=C(Nc1ccc2c(c1)OCCN2c1ncco1)Nc1ccc2cc[nH]c2c1 [Example 185, 1-(1H-indol-6-yl)-3-(4-(oxazol-2-yl)-3,4-dihydro-2H-benzo[b][1,4]oxazin-7-yl)urea] | ≤ 1000
21 | O=C(Nc1ccc2c(c1)OCC(=O)N2Cc1ccc(SC(F)(F)F)cc1)Nc1ccc2cc[nH]c2c1 [Example 106, 1-(1H-indol-6-yl)-3-(3-oxo-4-(4-((trifluoromethyl)thio)benzyl)-3,4-dihydro-2H-benzo[b][1,4]oxazin-7-yl)urea] | ≤ 1000
22 | COc1cc(F)c(CN2C(=O)CSc3cc(NC(=O)Nc4ccc5cc[nH]c5c4)ccc32)c(F)c1 [Example 126, 1-(4-(2,6-difluoro-4-methoxybenzyl)-3-oxo-3,4-dihydro-2H-benzo[b][1, 4]thiazin-7-yl)-3-(1H-indol-6-yl)urea] | ≤ 1000
23 | O=C1CSc2ccc(-c3nnc(Cc4ccccc4)[nH]3)cc2N1Cc1c(F)cccc1Cl [Example 45] | 1000 to 10000
24 | O=C(Nc1ccc2c(c1)OCC(=O)N2Cc1ccccc1)NC1Cc2ccccc2C1 [Example 136, 1-(4-benzyl-3-oxo-3,4-dihydro-2H-benzo[b][1, 4]oxazin-7-yl)-3-(2,3-dihydro-1H-inden-2-yl)urea] | 1000 to 10000
25 | O=C(Nc1ccc2c(c1)OCC(=O)N2Cc1cc(F)cc(C(F)(F)F)c1)Nc1ccc2cc[nH]c2c1 [Example 112, 1-(4-(3-fluoro-5-(trifluoromethyl)benzyl)-3-oxo-3,4-dihydro-2H-benzo[b][1,4]oxazin-7-yl)-3-(1H-indol-6-yl)urea] | ≤ 1000
26 | O=C(Nc1ccc(F)cc1)Nc1ccc2c(c1)SCC(=O)N2Cc1ccccc1 [Example 52, 1-(4-benzyl-3-oxo-3,4-dihydro-2H-benzo[b][1, 4]thiazin-7-yl)-3-(4-fluorophenyl) urea] | 1000 to 10000
27 | O=C(Nc1ccc2c(c1)OCC(=O)N2Cc1ccccc1-c1ccccc1)Nc1ccc2cc[nH]c2c1 [Example 101, 1-(4-([1,1′-biphenyl]-2-ylmethyl)-3-oxo-3,4-dihydro-2H-benzo[b][1,4]oxazin-7-yl)-3-(1H-indol-6-yl)urea] | ≤ 1000
